Columns and labels:
Type in all cases: in vivo
Kochia (Kochia scoparia) [1] = assay: Test A preemergence; details: Bassia scoparia, pre-emergence, 240 h; for pest or weed control at 125 g/ha: 125 g ai/ha, Preemergence, visual injury rating after approximately 10 d, read-out: Kochia plant response rating (0 to 100 scale, 0 is no effect, 100 is complete control); for pest or weed control at 500 g/ha: 500 g ai/ha, preemergence, visual injury rating about 10 d after treatment, 0 to 100 scale (0 no effect, 100 complete control), read-out: Kochia plant response rating
In short: (§1)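 Seeds sprayed preemergence with a directed soil spray, or plants at 2 to 10 cm height and one- to two-leaf stage sprayed postemergence, with test chemicals in a non-phytotoxic solvent mixture containing surfactant, in loam soil–sand blend. Injury rated visually against untreated controls after about 10 d in greenhouse, 0 (no effect) to 100 (complete control).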

[2] = system: barnyardgrass (Echinochloa crus-galli); assay: Test A preemergence; details: Echinochloa crus-galli, pre-emergence, 240 h; for pest or weed control at 125 g/ha: 125 g ai/ha, Preemergence, visual injury rating after approximately 10 d, read-out: Barnyardgrass plant response rating (0 to 100 scale, 0 is no effect, 100 is complete control); for pest or weed control at 500 g/ha: 500 g ai/ha, preemergence, visual injury rating about 10 d after treatment, 0 to 100 scale (0 no effect, 100 complete control), read-out: Barnyardgrass plant response rating
In short: as §1

[3] = system: giant foxtail (Setaria faberii); assay: Test A preemergence; details: Setaria faberi, pre-emergence, 240 h; for pest or weed control at 125 g/ha: 125 g ai/ha, Preemergence, visual injury rating after approximately 10 d, read-out: Foxtail, Giant plant response rating (0 to 100 scale, 0 is no effect, 100 is complete control); for pest or weed control at 500 g/ha: 500 g ai/ha, preemergence, visual injury rating about 10 d after treatment, 0 to 100 scale (0 no effect, 100 complete control), read-out: Foxtail, Giant plant response rating
In short: as §1

[4] = system: pigweed (Amaranthus retroflexus); assay: Test A preemergence; details: Amaranthus retroflexus, pre-emergence, 240 h; for pest or weed control at 125 g/ha: 125 g ai/ha, Preemergence, visual injury rating after approximately 10 d, read-out: Pigweed plant response rating (0 to 100 scale, 0 is no effect, 100 is complete control); for pest or weed control at 500 g/ha: 500 g ai/ha, preemergence, visual injury rating about 10 d after treatment, 0 to 100 scale (0 no effect, 100 complete control), read-out: Pigweed plant response rating
[5] = system: ragweed (common ragweed, Ambrosia elatior); assay: Test A preemergence; details: Ambrosia artemisiifolia, pre-emergence, 240 h; for pest or weed control at 125 g/ha: 125 g ai/ha, Preemergence, visual injury rating after approximately 10 d, read-out: Ragweed plant response rating (0 to 100 scale, 0 is no effect, 100 is complete control); for pest or weed control at 500 g/ha: 500 g ai/ha, preemergence, visual injury rating about 10 d after treatment, 0 to 100 scale (0 no effect, 100 complete control), read-out: Ragweed plant response rating
In short: as §1

[6] = system: ryegrass, Italian (Italian ryegrass, Lolium multiflorum); assay: Test A preemergence; details: Lolium multiflorum, pre-emergence, 240 h; for pest or weed control at 125 g/ha: 125 g ai/ha, Preemergence, visual injury rating after approximately 10 d, read-out: Ryegrass, Italian plant response rating (0 to 100 scale, 0 is no effect, 100 is complete control); for pest or weed control at 500 g/ha: 500 g ai/ha, preemergence, visual injury rating about 10 d after treatment, 0 to 100 scale (0 no effect, 100 complete control), read-out: Ryegrass, Italian plant response rating
In short: as §1

[7] = system: Galium (catchweed bedstraw, Galium aparine); assay: Test A postemergence; details: Galium, post-emergence, 240 h, 125 g ai/ha, Postemergence; visual injury after approximately 10 d; 0 to 100 scale where 0 is no effect and 100 is complete control; read-out: Plant response rating, Galium
In short: as §1

Kochia (Kochia scoparia) [8] = assay: Test A postemergence; details: Bassia scoparia, post-emergence, 240 h, 125 g ai/ha, Postemergence; visual injury after approximately 10 d; 0 to 100 scale where 0 is no effect and 100 is complete control; read-out: Plant response rating, Kochia
In short: as §1

[9] = system: blackgrass (Alopecurus myosuroides); assay: Test A postemergence; details: Alopecurus myosuroides, post-emergence, 240 h, 125 g ai/ha, Postemergence; visual injury after approximately 10 d; 0 to 100 scale where 0 is no effect and 100 is complete control; read-out: Plant response rating, Blackgrass
In short: as §1

corn (Zea mays) = assay: Test A postemergence; details: Zea mays, post-emergence, 240 h, 125 g ai/ha, Postemergence; visual injury after approximately 10 d; 0 to 100 scale where 0 is no effect and 100 is complete control
In short: as §1

[10] = system: giant foxtail (Setaria faberii); assay: Test A postemergence; details: Setaria faberi, post-emergence, 240 h, 125 g ai/ha, Postemergence; visual injury after approximately 10 d; 0 to 100 scale where 0 is no effect and 100 is complete control; read-out: Plant response rating, Foxtail, Giant
In short: as §1

[11] = system: pigweed (Amaranthus retroflexus); assay: Test A postemergence; details: Amaranthus retroflexus, post-emergence, 240 h, 125 g ai/ha, Postemergence; visual injury after approximately 10 d; 0 to 100 scale where 0 is no effect and 100 is complete control; read-out: Plant response rating, Pigweed
In short: as §1

[12] = system: ragweed (common ragweed, Ambrosia elatior); assay: Test A postemergence; details: Ambrosia artemisiifolia, post-emergence, 240 h, 125 g ai/ha, Postemergence; visual injury after approximately 10 d; 0 to 100 scale where 0 is no effect and 100 is complete control; read-out: Plant response rating, Ragweed
In short: as §1

[13] = system: ryegrass, Italian (Italian ryegrass, Lolium multiflorum); assay: Test A postemergence; details: Lolium multiflorum, post-emergence, 240 h, 125 g ai/ha, Postemergence; visual injury after approximately 10 d; 0 to 100 scale where 0 is no effect and 100 is complete control; read-out: Plant response rating, Ryegrass, Italian
In short: as §1

[14] = system: wheat (Triticum aestivum); assay: Test A postemergence; details: Triticum aestivum, post-emergence, 240 h, 125 g ai/ha, Postemergence; visual injury after approximately 10 d; 0 to 100 scale where 0 is no effect and 100 is complete control; read-out: Plant response rating, Wheat
In short: as §1

[15] = system: barnyardgrass (Echinochloa crus-galli); assay: Test B flooded paddy test; details: Echinochloa crus-galli, Flood, 250 g ai/ha; scale of 0 to 100 where 0 is no effect and 100 is complete control; read-out: Barnyardgrass plant response rating
In short: (§2)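 2-leaf plants; pots flooded 3 cm over soil; cpd added to paddy water; depth held; greenhouse 13–15 d; visual rating vs controls, 0 = no effect, 100 = complete control.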

[16] = system: ducksalad (Heteranthera limosa); assay: Test B flooded paddy test; details: Heteranthera limosa, Flood, 250 g ai/ha; scale of 0 to 100 where 0 is no effect and 100 is complete control; read-out: Ducksalad plant response rating
In short: as §2

rice (Oryra sativa) = assay: Test B flooded paddy test; details: Oryza sativa, Flood, 250 g ai/ha; scale of 0 to 100 where 0 is no effect and 100 is complete control; read-out: Rice plant response rating
In short: as §2

[17] = system: sedge, umbrella (small-flower umbrella sedge, Cyperus difformis); assay: Test B flooded paddy test; details: Cyperus difformis, Flood, 250 g ai/ha; scale of 0 to 100 where 0 is no effect and 100 is complete control; read-out: Sedge, Umbrella plant response rating
In short: as §2

| SMILES | pest or weed control at 125 g/ha (Kochia (Kochia scoparia) [1]) [%] | pest or weed control at 500 g/ha (Kochia (Kochia scoparia) [1]) [%] | pest or weed control at 125 g/ha [2] [%] | pest or weed control at 500 g/ha [2] [%] | pest or weed control at 125 g/ha [3] [%] | pest or weed control at 500 g/ha [3] [%] | pest or weed control at 125 g/ha [4] [%] | pest or weed control at 500 g/ha [4] [%] | pest or weed control at 500 g/ha [5] [%] | pest or weed control at 125 g/ha [6] [%] | pest or weed control at 500 g/ha [6] [%] | pest or weed control at 125 g/ha [7] [%] | pest or weed control at 125 g/ha (Kochia (Kochia scoparia) [8]) [%] | pest or weed control at 125 g/ha [9] [%] | Corn plant response rating (crop injury, 0 = no effect, 100 = complete kill) at 125 g/ha (corn (Zea mays)) [%] | pest or weed control at 125 g/ha [10] [%] | pest or weed control at 125 g/ha [11] [%] | pest or weed control at 125 g/ha [12] [%] | pest or weed control at 125 g/ha [13] [%] | plant injury at 125 g/ha [14] [%] | also measured |
| --- | --- | --- | --- | --- | --- | --- | --- | --- | --- | --- | --- | --- | --- | --- | --- | --- | --- | --- | --- | --- | --- |
| CN1C[C@H](c2cc(F)cc(Cl)c2)[C@@H](C(=O)Nc2cccc(F)c2F)C1=O [Compound 974] | 90 | 100 | 90 | 100 | 90 | 90 | 20 | 60 | 90 | 70 | 90 | 50 | 70 | 70 | 70 | 90 | 40 | 20 | 70 | 70 | pest or weed control at 125 g/ha [5]: 90%; pest or weed control at 250 g/ha [15]: 60%; pest or weed control at 250 g/ha [16]: 100%; pest or weed control at 250 g/ha (rice (Oryra sativa)): 15%; pest or weed control at 250 g/ha [17]: 0% |
| CSc1ccccc1NC(=O)[C@H]1C(=O)N(C)C[C@@H]1c1ccc(C)c(F)c1 [Compound 983] | 90 | 90 | 90 | 100 | 100 | 100 | 0 | 40 | 100 | 30 | 60 | 30 | 50 | 30 | 20 | 90 | 0 | 0 | 20 | 30 | pest or weed control at 125 g/ha [5]: 70%; pest or weed control at 250 g/ha [15]: 30%; pest or weed control at 250 g/ha [16]: 100%; pest or weed control at 250 g/ha (rice (Oryra sativa)): 0%; pest or weed control at 250 g/ha [17]: 0% |
| CN1C[C@H](c2cc(F)cc(Cl)c2)[C@@H](C(=O)Nc2ccccc2F)C1=O [Compound 976] | 70 | 90 | 90 | 100 | 90 | 90 | 0 | 50 | 90 | 50 | 80 | 0 | 30 | 40 | 60 | 90 | 0 | 0 | 20 | 40 | pest or weed control at 250 g/ha [15]: 65%; pest or weed control at 250 g/ha [16]: 95%; pest or weed control at 250 g/ha (rice (Oryra sativa)): 20%; pest or weed control at 250 g/ha [17]: 0% |
| COc1cc(OC)cc([C@H]2CN(C)C(=O)[C@@H]2C(=O)Nc2ccccc2F)c1 [Compound 980] | 0 | 90 | 90 | 100 | 90 | 100 | 0 | 0 | 20 | 20 | 30 | 0 | 0 | 0 | 0 | 90 | 0 | 0 | 0 | 0 | pest or weed control at 125 g/ha [5]: 0%; pest or weed control at 250 g/ha [15]: 60%; pest or weed control at 250 g/ha [16]: 0%; pest or weed control at 250 g/ha (rice (Oryra sativa)): 30%; pest or weed control at 250 g/ha [17]: 0% |

Reference: patent US12077503B2, “Substituted cyclic amides and their use as herbicides” (FMC CORPORATION, priority 2015, dated 2024)
